# Measurements: patent US20210045385A1, “PYRIDAZINONE-SUBSTITUTED KETOXIMES AS HERBICIDES” (FMC Corporation, priority 2018, published 2021)
# How the values were obtained:
# Type in all cases: in vivo
# [1] = test system: Italian ryegrass (Lolium mutiflorum); assay: Test C preemergence, visual plant response rating; conditions: Test C, 0 is no effect, 100 is complete control
# Method in brief: (§1)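 Visual injury on a 0 (no effect) to 100 (complete control) scale versus untreated controls, scored approximately 10 d after treatment under greenhouse conditions. Treatments used surfactant-containing non-phytotoxic solvent formulations, sprayed onto loam–sand soil preemergence or onto one- to two-leaf plants 2–10 cm tall postemergence.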
# [2] = test system: barnyardgrass (Echinochloa crus-galli); assay: Test C preemergence, visual plant response rating; conditions: Test C, 0 is no effect, 100 is complete control
# Method in brief: as §1
# [3] = test system: foxtail, giant (giant foxtail, Setaria faberi); assay: Test C preemergence, visual plant response rating; conditions: Test C, 0 is no effect, 100 is complete control
# Method in brief: as §1
# kochia (Bassia scoparia) [4] = assay: Test C preemergence, visual plant response rating; conditions: Test C, 0 is no effect, 100 is complete control
# Method in brief: as §1
# [5] = test system: pigweed (Amaranthus retroflexus); assay: Test C preemergence, visual plant response rating; conditions: Test C, 0 is no effect, 100 is complete control
# Method in brief: as §1
# [6] = test system: ragweed (common ragweed, Ambrosia artemisiifolia); assay: Test C preemergence, visual plant response rating; conditions: Test C, 0 is no effect, 100 is complete control
# Method in brief: as §1
# [7] = test system: Italian ryegrass (Lolium mutiflorum); assay: Test C postemergence, visual plant response rating
# Method in brief: as §1
# [8] = test system: barnyardgrass (Echinochloa crus-galli); assay: Test C postemergence, visual plant response rating
# Method in brief: as §1
# [9] = test system: blackgrass (Alopecurus myosuroides); assay: Test C postemergence, visual plant response rating
# Method in brief: as §1
# corn (Zea mays) = assay: Test C postemergence, visual plant response rating
# Method in brief: as §1
# [10] = test system: foxtail, giant (giant foxtail, Setaria faberi); assay: Test C postemergence, visual plant response rating
# Method in brief: as §1
# [11] = test system: galium (catchweed bedstraw, Galium aparine); assay: Test C postemergence, visual plant response rating
# Method in brief: as §1
# kochia (Bassia scoparia) [12] = assay: Test C postemergence, visual plant response rating
# Method in brief: as §1
# [13] = test system: pigweed (Amaranthus retroflexus); assay: Test C postemergence, visual plant response rating
# Method in brief: as §1
# [14] = test system: ragweed (common ragweed, Ambrosia artemisiifolia); assay: Test C postemergence, visual plant response rating
# Method in brief: as §1
# [15] = test system: wheat (Triticum aestivum); assay: Test C postemergence, visual plant response rating
# Method in brief: as §1
# [16] = test system: barnyardgrass (Echinochloa crus-galli); assay: Test D flooded paddy test, visual plant response rating; conditions: 250 g ai/ha, scale 0 to 100 (0 no effect, 100 complete control), 13 to 15 d
# Method in brief: (§2)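 Rating is visual, on a 0 (no effect) to 100 (complete control) scale versus controls, taken 13 to 15 d after treatment in a greenhouse. Treatment went into paddy water kept 3 cm above the soil surface, with plants at the 2-leaf stage.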
# [17] = test system: duck salad (Heteranthera limosa); assay: as above; conditions: 250 g ai/ha, scale 0 to 100 (0 no effect, 100 complete control), 13 to 15 d
# Method in brief: as §2
# rice (Oryza sativa) = assay: as above; conditions: 250 g ai/ha, scale 0 to 100 (0 no effect, 100 complete control), 13 to 15 d
# Method in brief: as §2
# [18] = test system: sedge umbrella (small-flower umbrella sedge, Cyperus difformis); assay: as above; conditions: 250 g ai/ha, scale 0 to 100 (0 no effect, 100 complete control), 13 to 15 d
# Method in brief: as §2
# [19] = Test C, postemergence, 125 g ai/ha
Compound,"Ryegrass, Italian plant response rating (0 to 100 scale) ([1]; 31 g ai/ha)","Ryegrass, Italian plant response rating (0 to 100 scale) ([1]; 125 g ai/ha)",Barnyardgrass plant response rating (0 to 100 scale) ([2]; 31 g ai/ha),Barnyardgrass plant response rating (0 to 100 scale) ([2]; 125 g ai/ha),"Foxtail, Giant plant response rating (0 to 100 scale) ([3]; 31 g ai/ha)","Foxtail, Giant plant response rating (0 to 100 scale) ([3]; 125 g ai/ha)",Kochia plant response rating (0 to 100 scale) (kochia (Bassia scoparia) [4]; 31 g ai/ha),Kochia plant response rating (0 to 100 scale) (kochia (Bassia scoparia) [4]; 125 g ai/ha),Pigweed plant response rating (0 to 100 scale) ([5]; 31 g ai/ha),Pigweed plant response rating (0 to 100 scale) ([5]; 125 g ai/ha),Ragweed plant response rating (0 to 100 scale) ([6]; 31 g ai/ha),Ragweed plant response rating (0 to 100 scale) ([6]; 125 g ai/ha),"Ryegrass, Italian plant response rating (0 to 100 scale) ([7]; Postemergence, 31 g ai/ha)","Ryegrass, Italian plant response rating (0 to 100 scale) [7, 19]","Barnyardgrass plant response rating (0 to 100 scale) ([8]; Postemergence, 31 g ai/ha)","Barnyardgrass plant response rating (0 to 100 scale) [8, 19]","Blackgrass plant response rating (0 to 100 scale) ([9]; Postemergence, 31 g ai/ha)","Blackgrass plant response rating (0 to 100 scale) [9, 19]","Corn plant response rating (0 to 100 scale) (corn (Zea mays); Postemergence, 31 g ai/ha)",Corn plant response rating (0 to 100 scale) (corn (Zea mays); [19]),other results
CCO/N=C(\c1c(O)cnn(C)c1=O)c1ccc(F)c2ccccc12 [Compound 269],0,10,0,0,0,30,0,0,0,10,0,0,0,60,0,0,0,30,0,20,"Foxtail, Giant plant response rating (0 to 100 scale) ([10]; Postemergence, 31 g ai/ha): 10; Foxtail, Giant plant response rating (0 to 100 scale) [10, 19]: 40; Galium plant response rating (0 to 100 scale) ([11]; Postemergence, 31 g ai/ha): 50; Galium plant response rating (0 to 100 scale) [11, 19]: 80; Kochia plant response rating (0 to 100 scale) (kochia (Bassia scoparia) [12]; Postemergence, 31 g ai/ha): 0; Kochia plant response rating (0 to 100 scale) (kochia (Bassia scoparia) [12]; [19]): 30; Pigweed plant response rating (0 to 100 scale) ([13]; Postemergence, 31 g ai/ha): 50; Pigweed plant response rating (0 to 100 scale) [13, 19]: 60; Ragweed plant response rating (0 to 100 scale) ([14]; Postemergence, 31 g ai/ha): 10; Ragweed plant response rating (0 to 100 scale) [14, 19]: 40; Wheat plant response rating (0 to 100 scale) ([15]; Postemergence, 31 g ai/ha): 0; Wheat plant response rating (0 to 100 scale) [15, 19]: 0; Plant response rating, Barnyardgrass (Flood) [16]: 0; Plant response rating, Ducksalad (Flood) [17]: 0; Plant response rating, Rice (Flood) (rice (Oryza sativa)): 0; Plant response rating, Sedge, Umbrella (Flood) [18]: 0"
CCO/N=C(/c1c(O)cnn(C)c1=O)c1ccc(F)c2ccccc12 [Compound 270],0,10,0,0,0,20,0,0,0,0,0,10,0,10,0,0,0,30,0,0,"Foxtail, Giant plant response rating (0 to 100 scale) ([10]; Postemergence, 31 g ai/ha): 0; Foxtail, Giant plant response rating (0 to 100 scale) [10, 19]: 10; Galium plant response rating (0 to 100 scale) ([11]; Postemergence, 31 g ai/ha): 50; Galium plant response rating (0 to 100 scale) [11, 19]: 80; Kochia plant response rating (0 to 100 scale) (kochia (Bassia scoparia) [12]; Postemergence, 31 g ai/ha): 20; Kochia plant response rating (0 to 100 scale) (kochia (Bassia scoparia) [12]; [19]): 30; Pigweed plant response rating (0 to 100 scale) ([13]; Postemergence, 31 g ai/ha): 80; Pigweed plant response rating (0 to 100 scale) [13, 19]: 50; Ragweed plant response rating (0 to 100 scale) ([14]; Postemergence, 31 g ai/ha): 20; Ragweed plant response rating (0 to 100 scale) [14, 19]: 70; Wheat plant response rating (0 to 100 scale) ([15]; Postemergence, 31 g ai/ha): 0; Wheat plant response rating (0 to 100 scale) [15, 19]: 0; Plant response rating, Barnyardgrass (Flood) [16]: 0; Plant response rating, Ducksalad (Flood) [17]: 0; Plant response rating, Rice (Flood) (rice (Oryza sativa)): 0; Plant response rating, Sedge, Umbrella (Flood) [18]: 0"
